From ChEMBL document CHEMBL3108728, “Anti-inflammatory activity of rhamnetin and a model of its binding to c-Jun NH2-terminal kinase 1 and p38 MAPK” (J Nat Prod, 2014)
The source made the active and inactive calls. The calls are words filed in the database; no cut-off is given here.

What was measured:
[1] = biological target: T1, MAP kinase p38 (Mus musculus) (UniProt P47811+O08911+Q9WUI1+Q9Z1B7); assay: Inhibition of LPS-induced p38 MAPK phosphorylation in mouse RAW264.7 cells at 20 uM by Western blotting analysis; type: cell-based
[2] = biological target: T2, MAP kinase p38 (Homo sapiens) (UniProt O15264+Q15759+Q16539+P53778); assay: Binding affinity to human p38 MAPK expressed in Escherichia coli by circular dichroism method
[3] = biological target: T1, MAP kinase p38 (Mus musculus); assay: Inhibition of IFNgamma-induced p38 MAPK phosphorylation in mouse RAW264.7 cells at 20 uM by Western blotting analysis relative to untreated control; type: cell-based
[4] = system: RAW264.7; assay: Antiinflammatory activity against mouse RAW264.7 cells assessed as inhibition of LPS-induced COX2 protein expression at 20 uM by Western blotting analysis; type: functional
[5] = system: RAW264.7; assay: Antiinflammatory activity against mouse RAW264.7 cells assessed as reduction of LPS-induced mTNFalpha mRNA expression at 25 uM after 3 hrs by RT-PCR analysis relative to untreated control; type: functional, cell-based
[6] = system: HaCaT; assay: Cytotoxicity against human HaCaT cells at 100 uM after 24 hrs by MTT assay relative to untreated control; type: cell-based
[7] = system: RAW264.7; assay: Cytotoxicity against mouse RAW264.7 cells up to 12.5 uM after 24 hrs by MTT assay relative to untreated control; type: cell-based; conditions: raw264.7, 24 h
[8] = biological target: Mitogen-activated protein kinase 3 (Mus musculus) (UniProt Q63844); assay: Inhibition of IFNgamma-induced ERK phosphorylation in mouse RAW264.7 cells at 20 uM by Western blotting analysis relative to untreated control; type: cell-based
Chain of Mitogen-activated protein kinase 3 (Mus musculus) (Q63844 whole entry): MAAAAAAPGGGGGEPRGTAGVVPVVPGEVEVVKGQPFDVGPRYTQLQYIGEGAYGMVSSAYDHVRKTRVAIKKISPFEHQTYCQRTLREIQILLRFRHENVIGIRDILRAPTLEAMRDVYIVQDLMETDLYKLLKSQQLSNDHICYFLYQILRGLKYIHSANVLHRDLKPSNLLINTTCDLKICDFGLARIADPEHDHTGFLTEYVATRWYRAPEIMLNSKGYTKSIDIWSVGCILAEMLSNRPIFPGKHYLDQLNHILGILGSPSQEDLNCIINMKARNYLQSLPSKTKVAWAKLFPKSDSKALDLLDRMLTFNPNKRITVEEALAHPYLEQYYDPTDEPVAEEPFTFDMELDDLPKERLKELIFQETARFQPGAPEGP

[9] = biological target: T3, Monocyte differentiation antigen CD14 (Mus musculus) (UniProt P10810); assay: Inhibition of CD14 in mouse RAW264.7 cells at 20 uM by Western blotting analysis; type: cell-based
T3 sequence (whole entry): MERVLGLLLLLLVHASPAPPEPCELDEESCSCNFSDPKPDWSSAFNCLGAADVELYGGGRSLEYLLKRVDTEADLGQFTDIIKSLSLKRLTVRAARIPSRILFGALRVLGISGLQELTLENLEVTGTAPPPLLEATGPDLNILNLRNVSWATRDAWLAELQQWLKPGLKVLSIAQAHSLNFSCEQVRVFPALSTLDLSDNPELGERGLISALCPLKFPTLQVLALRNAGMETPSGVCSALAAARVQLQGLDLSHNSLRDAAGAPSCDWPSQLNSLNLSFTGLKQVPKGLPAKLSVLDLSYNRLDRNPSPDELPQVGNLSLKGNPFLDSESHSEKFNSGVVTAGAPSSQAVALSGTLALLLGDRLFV

[10] = system: RAW264.7; assay: Antiinflammatory activity against mouse RAW264.7 cells assessed as reduction of LPS-induced mMIP-2 level at 10 uM after 24 hrs by ELISA relative to untreated control; type: functional; design: scale not given: the % may be the effect or the level left
[11] = system: RAW264.7; assay: Antiinflammatory activity against mouse RAW264.7 cells assessed as reduction of LPS-induced NO production at 10 uM after 24 hrs; type: functional; design: scale not given: the % may be the effect or the level left
[12] = system: RAW264.7; assay: Antiinflammatory activity against mouse RAW264.7 cells assessed as reduction of IFNgamma-induced NO production at 10 uM after 24 hrs; type: functional; design: scale not given: the % may be the effect or the level left
[13] = biological target: T2, MAP kinase p38 (Homo sapiens); assay: Binding affinity to human p38 MAPK expressed in Escherichia coli by spectrofluorometry
[14] = biological target: Mitogen-activated protein kinase 8 (Mus musculus) (UniProt Q91Y86); assay: Inhibition of IFNgamma-induced JNK phosphorylation in mouse RAW264.7 cells at 20 uM by Western blotting analysis relative to untreated control; type: cell-based
Chain of Mitogen-activated protein kinase 8 (Mus musculus) (Q91Y86 whole entry): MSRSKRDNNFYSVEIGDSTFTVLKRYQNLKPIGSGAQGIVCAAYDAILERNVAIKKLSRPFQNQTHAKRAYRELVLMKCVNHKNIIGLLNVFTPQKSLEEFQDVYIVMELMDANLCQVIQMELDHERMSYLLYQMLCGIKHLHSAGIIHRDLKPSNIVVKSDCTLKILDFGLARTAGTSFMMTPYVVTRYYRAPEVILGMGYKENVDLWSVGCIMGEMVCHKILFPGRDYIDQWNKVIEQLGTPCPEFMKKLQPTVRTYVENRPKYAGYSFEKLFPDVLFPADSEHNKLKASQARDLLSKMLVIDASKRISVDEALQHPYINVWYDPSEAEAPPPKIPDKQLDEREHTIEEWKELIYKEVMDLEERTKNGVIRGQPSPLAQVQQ

[15] = system: RAW264.7; assay: Antiinflammatory activity against mouse RAW264.7 cells assessed as reduction of LPS-induced mMIP-2 mRNA expression at 25 uM after 3 hrs by RT-PCR analysis relative to untreated control; type: functional, cell-based
[16] = system: RAW264.7; assay: Antiinflammatory activity against mouse RAW264.7 cells assessed as inhibition of LPS-induced TNFalpha production at 20 uM after 24 hrs by ELISA; type: functional; conditions: RAW264.7, 24 h
[17] = system: RAW264.7; assay: Antiinflammatory activity against mouse RAW264.7 cells assessed as inhibition of LPS-induced TNFalpha production at 10 uM after 24 hrs by ELISA; type: functional; conditions: RAW264.7, 24 h
[18] = biological target: Mitogen-activated protein kinase 3 (Mus musculus) (UniProt Q63844); assay: Inhibition of LPS-induced ERK phosphorylation in mouse RAW264.7 cells at 20 uM by Western blotting analysis; type: cell-based
[19] = system: RAW264.7; assay: Antiinflammatory activity against mouse RAW264.7 cells assessed as reduction of LPS-induced NO production at 20 uM after 24 hrs; type: functional; design: scale not given: the % may be the effect or the level left
[20] = system: RAW264.7; assay: Antiinflammatory activity against mouse RAW264.7 cells assessed as reduction of LPS-induced mMIP-2 level at 20 uM after 24 hrs by ELISA relative to untreated control; type: functional; design: scale not given: the % may be the effect or the level left
[21] = system: RAW264.7; assay: Antiinflammatory activity against mouse RAW264.7 cells assessed as reduction of IFNgamma-induced NO production at 20 uM after 24 hrs; type: functional; design: scale not given: the % may be the effect or the level left
[22] = biological target: Mitogen-activated protein kinase 8 (Homo sapiens) (UniProt P45983); assay: Binding affinity to human C-terminal His6-tagged JNK1alpha1 (1 to 364) expressed in Escherichia coli by spectrofluorometry
Chain of Mitogen-activated protein kinase 8 (Homo sapiens) (P45983 whole entry): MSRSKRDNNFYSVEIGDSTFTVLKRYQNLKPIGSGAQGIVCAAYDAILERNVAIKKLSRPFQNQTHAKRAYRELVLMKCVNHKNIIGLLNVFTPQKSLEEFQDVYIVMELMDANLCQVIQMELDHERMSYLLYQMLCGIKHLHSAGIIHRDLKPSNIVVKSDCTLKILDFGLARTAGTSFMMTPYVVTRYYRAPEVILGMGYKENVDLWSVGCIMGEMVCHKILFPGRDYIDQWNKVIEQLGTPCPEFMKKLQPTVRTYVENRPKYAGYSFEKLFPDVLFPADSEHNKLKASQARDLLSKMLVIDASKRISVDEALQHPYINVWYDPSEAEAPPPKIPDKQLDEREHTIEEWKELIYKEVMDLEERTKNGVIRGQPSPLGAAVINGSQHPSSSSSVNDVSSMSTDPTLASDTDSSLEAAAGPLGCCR

[23] = Cytotoxicity against mouse RAW264.7 cells assessed as cell survival at 100 uM after 24 hrs by MTT assay relative to untreated control; type: cell-based; conditions: read-out: Survival
[24] = system: RAW264.7; assay: Antiinflammatory activity against mouse RAW264.7 cells assessed as reduction of LPS-induced mMIP-1 mRNA expression at 25 uM after 3 hrs by RT-PCR analysis relative to untreated control; type: functional; design: scale not given: the % may be the effect or the level left
[25] = biological target: Mitogen-activated protein kinase 8 (Homo sapiens) (UniProt P45983); assay: Binding affinity to human C-terminal His6-tagged JNK1alpha1 (1 to 364) expressed in Escherichia coli by circular dichroism method
[26] = biological target: Mitogen-activated protein kinase 8 (Mus musculus) (UniProt Q91Y86); assay: Inhibition of LPS-induced JNK phosphorylation in mouse RAW264.7 cells at 20 uM by Western blotting analysis; type: cell-based

Structure (SMILES): COc1cc(O)c2c(=O)c(O)c(-c3ccc(O)c(O)c3)oc2c1 [RHAMNETIN]
- inhibition [1]: 51%
- Activity [2]: Active
- inhibition [3]: 58%
- inhibition at 20 µM [4]: 76%
- Activity [5]: Active
- Activity [6]: Non-toxic
- Activity [7]: Non-toxic
- inhibition [8]: 38%
- inhibition [9]: inactive
- Activity [10]: 42%
- Activity [11]: 62%
- Activity [12]: 73.2%
- K [13]: 2.31 ×10⁷ /M
- inhibition [14]: 92%
- Activity [15]: Active
- inhibition at 20 µM [16]: 63%
- inhibition at 10 µM [17]: 54%
- inhibition [18]: 27%
- Activity [19]: 74%
- Activity [20]: 77%
- Activity [21]: 91.5%
- K [22]: 9.7 ×10⁸ /M
- viability at 24 h, 100 µM [23]: > 55%
- Activity [24]: 96.2%
- Activity [25]: Active
- inhibition [26]: 64%
